target: Tie-2 (Homo sapiens, UniProt Q02763); assay: Tie-2 tyrosine kinase activity assay (luciferase/luciferin ATP consumption with pEY substrate, or 33P-ATP incorporation); type: biochemical; settings: human enzyme Tie-2
In short: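 Values are IC50 categories (A <50 nM to D ≥10,000 nM), with Ki obtainable by fitting rates to a tight-binding model. Assay formats: 33P-ATP phosphate transfer to adsorbed generic substrate counted by scintillation, or luciferase-detected ATP depletion using pEY.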

Sequence of Tie-2 (Q02763 23-1124): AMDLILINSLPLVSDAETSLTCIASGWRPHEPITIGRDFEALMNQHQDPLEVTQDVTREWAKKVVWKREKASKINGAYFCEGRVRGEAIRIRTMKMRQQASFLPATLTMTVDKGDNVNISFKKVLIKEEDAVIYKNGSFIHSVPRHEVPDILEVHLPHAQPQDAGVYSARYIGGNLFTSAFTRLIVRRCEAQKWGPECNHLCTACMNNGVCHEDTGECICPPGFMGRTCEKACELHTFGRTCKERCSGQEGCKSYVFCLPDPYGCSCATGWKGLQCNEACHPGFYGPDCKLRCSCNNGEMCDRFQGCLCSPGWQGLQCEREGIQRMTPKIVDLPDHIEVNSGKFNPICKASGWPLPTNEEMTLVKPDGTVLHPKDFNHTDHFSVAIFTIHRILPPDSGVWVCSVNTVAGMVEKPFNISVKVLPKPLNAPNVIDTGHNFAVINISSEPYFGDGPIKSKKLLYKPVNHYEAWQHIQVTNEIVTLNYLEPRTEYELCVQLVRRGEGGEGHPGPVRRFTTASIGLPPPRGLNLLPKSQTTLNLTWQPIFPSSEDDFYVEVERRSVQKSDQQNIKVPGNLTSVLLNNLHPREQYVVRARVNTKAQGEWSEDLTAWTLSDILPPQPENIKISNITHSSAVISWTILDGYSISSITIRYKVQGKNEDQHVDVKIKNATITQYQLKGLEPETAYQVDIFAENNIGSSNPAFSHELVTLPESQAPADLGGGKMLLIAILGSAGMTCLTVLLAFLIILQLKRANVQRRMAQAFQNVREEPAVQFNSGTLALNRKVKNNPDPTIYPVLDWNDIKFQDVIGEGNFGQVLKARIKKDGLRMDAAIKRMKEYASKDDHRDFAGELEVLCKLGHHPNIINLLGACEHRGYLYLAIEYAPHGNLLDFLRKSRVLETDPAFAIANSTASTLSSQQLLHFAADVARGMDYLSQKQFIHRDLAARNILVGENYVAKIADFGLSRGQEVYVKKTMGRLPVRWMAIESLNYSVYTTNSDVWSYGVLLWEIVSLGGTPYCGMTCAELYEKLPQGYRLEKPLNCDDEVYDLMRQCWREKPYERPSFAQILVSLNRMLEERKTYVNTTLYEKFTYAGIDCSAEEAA

SMILES | IC50
COC(=O)Nc1nccc(COc2nsnc2N2CCN(C(=O)Nc3cc(C(F)(F)F)cc(C(F)(F)F)c3)CC2)n1 [Example 131, methyl {4-[({4-[4-({[3,5-bis(trifluoromethyl)phenyl]amino}carbonyl)piperazin-1-yl]-1,2,5-thiadiazol-3-yl}oxy)methyl]pyrimidin-2-yl}carbamate] | < 50 nM
CCc1cccc(NC(=O)N2CCN(c3nsnc3OCc3ccnc(NC(=O)OC)c3)CC2)c1 [Example 133, methyl [4-({[4-(4-{[(3-ethylphenyl)amino]carbonyl}piperazin-1-yl)-1,2,5-thiadiazol-3-yl]oxy}methyl)pyridin-2-yl]carbamate] | < 50 nM
N#Cc1nccc(COc2nsnc2N2CCN(C(=O)Nc3cc(C(F)(F)F)cc(C(F)(F)F)c3)CC2)n1 [Example 134, N-[3,5-bis(trifluoromethyl)phenyl]-4-(4-{[(2-cyanopyrimidin-4-yl)methyl]oxy}-1,2,5-thiadiazol-3-yl)piperazine-1-carboxamide] | ≥ 10000 nM
Nc1nccc(COc2nccnc2N2CCN(C(=O)Nc3cc(C(F)(F)F)cc(C(F)(F)F)c3)CC2)n1 [Example 135, 4-(3-{[(2-aminopyrimidin-4-yl)methyl]oxy}pyrazin-2-yl)-N-[3,5-bis(trifluoromethyl)phenyl]piperazine-1-carboxamide] | < 50 nM
NC(=O)c1nccc(COc2nsnc2N2CCN(C(=O)Nc3cc(C(F)(F)F)cc(C(F)(F)F)c3)CC2)n1 [Example 136, 4-[({4-[4-({[3,5-bis(trifluoromethyl)phenyl]amino}carbonyl)piperazin-1-yl]-1,2,5-thiadiazol-3-yl}oxy)methyl]pyrimidine-2-carboxamide] | 50 to 1000 nM
CCCCOc1nccc(COc2nsnc2N2CCN(C(=O)Nc3cc(C(F)(F)F)cc(C(F)(F)F)c3)CC2)n1 [Example 137, N-[3,5-bis(trifluoromethyl)phenyl]-4-[4-({[2-(butyloxy)pyrimidin-4-yl]methyl}oxy)-1,2,5-thiadiazol-3-yl]piperazine-1-carboxamide] | ≥ 10000 nM
O=C(Nc1cc(C(F)(F)F)cc(C(F)(F)F)c1)N1CCN(c2nsnc2OCc2ccncn2)CC1 [Example 138, N-[3,5-bis(trifluoromethyl)phenyl]-4-{4-[(pyrimidin-4-ylmethyl)oxy]-1,2,5-thiadiazol-3-yl}piperazine-1-carboxamide] | 50 to 1000 nM
O=C(O)c1cc(COc2nsnc2N2CCN(C(=O)Nc3cc(C(F)(F)F)cc(C(F)(F)F)c3)CC2)ccn1 [Example 139, 4-[({4-[4-({[3,5-bis(trifluoromethyl)phenyl]amino}carbonyl)piperazin-1-yl]-1,2,5-thiadiazol-3-yl}oxy)methyl]pyridine-2-carboxylic acid] | ≥ 10000 nM
O=C(Nc1cc(COc2nsnc2N2CCN(C(=O)Nc3cc(C(F)(F)F)cc(C(F)(F)F)c3)CC2)ccn1)OCCN1CCCC1 [Example 140, 2-pyrrolidin-1-ylethyl {4-[({4-[4-({[3,5-bis(trifluoromethyl)phenyl]amino}carbonyl)piperazin-1-yl]-1,2,5-thiadiazol-3-yl}oxy)methyl]pyridin-2-yl}carbamate] | < 50 nM
O=C(Nc1cc(COc2nsnc2N2CCN(C(=O)Nc3cc(C(F)(F)F)cc(C(F)(F)F)c3)CC2)ccn1)OCCN1CCOCC1 [Example 141, 2-morpholin-4-ylethyl {4-[({4-[4-({[3,5-bis(trifluoromethyl)phenyl]amino}carbonyl)piperazin-1-yl]-1,2,5-thiadiazol-3-yl}oxy)methyl]pyridin-2-yl}carbamate] | < 50 nM
Nc1nccc(COc2cccnc2N2CCN(C(=O)Nc3cc(C(F)(F)F)cc(C(F)(F)F)c3)CC2)n1 [Example 142, 4-(3-{[(2-aminopyrimidin-4-yl)methyl]oxy}pyridin-2-yl)-N-[3,5-bis(trifluoromethyl)phenyl]piperazine-1-carboxamide] | < 50 nM
CN1CCCC(C(=O)Nc2cc(COc3nsnc3N3CCN(C(=O)Nc4cc(C(F)(F)F)cc(C(F)(F)F)c4)CC3)ccn2)C1 (stereo not drawn) [Example 143, N-[3,5-bis(trifluoromethyl)phenyl]-4-(4-{[(2-{[(1-methylpiperidin-3-yl)carbonyl]amino}pyridin-4-yl)methyl]oxy}-1,2,5-thiadiazol-3-yl)piperazine-1-carboxamide] | < 50 nM
CCc1cccc(NC(=O)N2CCN(c3ncccc3OCc3ccnc(N)n3)CC2)c1 [Example 144, 4-(3-{[(2-aminopyrimidin-4-yl)methyl]oxy}pyridin-2-yl)-N-(3-ethylphenyl)piperazine-1-carboxamide] | < 50 nM
CN1CCN(CCOC(=O)Nc2cc(COc3nsnc3N3CCN(C(=O)Nc4cc(C(F)(F)F)cc(C(F)(F)F)c4)CC3)ccn2)CC1 [Example 145, 2-(4-methylpiperazin-1-yl)ethyl {4-[({4-[4-({[3,5-bis(trifluoromethyl)phenyl]amino}carbonyl)piperazin-1-yl]-1,2,5-thiadiazol-3-yl}oxy)methyl]pyridin-2-yl}carbamate] | < 50 nM
CCN1CCC(C(=O)Nc2cc(COc3nsnc3N3CCN(C(=O)Nc4cc(C(F)(F)F)cc(C(F)(F)F)c4)CC3)ccn2)CC1 [Example 146, N-[3,5-bis(trifluoromethyl)phenyl]-4-(4-{[(2-{[(1-ethylpiperidin-4-yl)carbonyl]amino}pyridin-4-yl)methyl]oxy}-1,2,5-thiadiazol-3-yl)piperazine-1-carboxamide] | < 50 nM
Nc1cc(COc2nsnc2N2CCN(C(=O)Nc3cccc(SC(F)(F)F)c3)CC2)ccn1 [Example 147, 4-(4-{[(2-aminopyridin-4-yl)methyl]oxy}-1,2,5-thiadiazol-3-yl)-N-{3-[(trifluoromethyl)thio]phenyl}piperazine-1-carboxamide] | < 50 nM
Nc1cc(COc2nsnc2N2CCN(S(=O)(=O)c3cc(C(F)(F)F)cc(C(F)(F)F)c3)CC2)ccn1 [Example 148, 4-({[4-(4-{[3,5-bis(trifluoromethyl)phenyl]sulfonyl}piperazin-1-yl)-1,2,5-thiadiazol-3-yl]oxy}methyl)pyridin-2-amine] | ≥ 10000 nM
Nc1cc(COc2nsnc2N2CCN(C(=O)Nc3cccc4ccccc34)CC2)ccn1 [Example 149, 4-(4-{[(2-aminopyridin-4-yl)methyl]oxy}-1,2,5-thiadiazol-3-yl)-N-naphthalen-1-ylpiperazine-1-carboxamide] | ≥ 10000 nM
CN(C)CC(=O)Nc1cc(COc2nsnc2N2CCN(C(=O)Nc3cc(C(F)(F)F)cc(C(F)(F)F)c3)CC2)ccn1 [Example 150, N-[3,5-bis(trifluoromethyl)phenyl]-4-{4-[({2-[(N,N-dimethylglycyl)amino]pyridin-4-yl}methyl)oxy]-1,2,5-thiadiazol-3-yl}piperazine-1-carboxamide] | < 50 nM
O=C(CN1CCOCC1)Nc1cc(COc2nsnc2N2CCN(C(=O)Nc3cc(C(F)(F)F)cc(C(F)(F)F)c3)CC2)ccn1 [Example 151, N-[3,5-bis(trifluoromethyl)phenyl]-4-{4-[({2-[(morpholin-4-ylacetyl)amino]pyridin-4-yl}methyl)oxy]-1,2,5-thiadiazol-3-yl}piperazine-1-carboxamide] | < 50 nM
O=C(CN1CCCCC1)Nc1cc(COc2nsnc2N2CCN(C(=O)Nc3cc(C(F)(F)F)cc(C(F)(F)F)c3)CC2)ccn1 [Example 152, N-[3,5-bis(trifluoromethyl)phenyl]-4-{4-[({2-[(piperidin-1-ylacetyl)amino]pyridin-4-yl}methyl)oxy]-1,2,5-thiadiazol-3-yl}piperazine-1-carboxamide] | 50 to 1000 nM

Source: patent US8013156B2 (Exelixis, Inc., priority 2003, dated 2011)
